# From patent publication US10669301B2, “Phosphoramidite building blocks for sugar-conjugated oligonucleotides” (AM CHEMICALS LLC, priority 2013, dated 2020)
# Test: Hydrolysis of phosphoramidite building blocks in 95% aqueous MeCN followed by reverse-phase HPLC
# Type: physicochemical
# Details: 95% aqueous MeCN at 25° C.
# Protocol: The hydrolysis of phosphoramidite building blocks 12 and 16 in 95% aqueous MeCN at 25° C. was followed by reverse-phase HPLC.
row,Substance,half-life of hydrolysis [h]
1,"5′-O-(4,4′-Dimethoxytrityl)-3′-O—[(N,N-diisopropylamino)[2-[[2-[(2,3,4,6-tetra-O-acetyl-β-D-glucopyranosyl)oxy]ethyl]oxy]ethoxy]phosphinyl]thymidine [Compound 16]",33
2,"5′-O-(4,4′-Dimethoxytrityl)-3′-O—[(N,N-diisopropylamino)[3-[(2,3,4,6-tetra-O-acetyl-β-D-glucopyranosyl)oxy]propyl]phosphino]thymidine [Compound 12]",48
